Like-named read-outs stand apart in the source and are kept apart here.
How the values were obtained:
Assay type in all cases: in vivo
Magnaporthe oryzae [1] = test: whole plant or invertebrate; conditions: for inhibition at 100 µM / inhibition at 500 µM: Pyricularia oryzae, read-out: inhibition rate on the number of necrotic spots
Magnaporthe oryzae [2] = test: whole plant or invertebrate; conditions: Pyricularia oryzae, read-out: inhibition rate of formation of rice blast necrotic spots, treatment experimental group
Magnaporthe oryzae [3] = test: whole plant or invertebrate; conditions: Pyricularia oryzae, read-out: inhibition rate of formation of rice blast necrotic spots, prevention experimental group
Bipolaris maydis = test: whole plant or invertebrate; conditions: for inhibition at 500 µM: Bipolaris maydis, in Zea mays, read-out: inhibition rate on the formation of disease spots
Blumeria graminis = test: Pathogenicity of Blumeria graminis on wheat leaves; conditions: 500 μmol/L, vs DMSO

`CC(C)N(C(=O)SC/C(Cl)=C/Cl)C(C)C` [Diallate] gave an inhibition at 100 µM (Magnaporthe oryzae [1]) greater than 50%, an inhibition at 500 µM (Magnaporthe oryzae [1]) greater than 50% and an inhibition at 500 µM (Magnaporthe oryzae [2]) greater than 50%. It also gave an inhibition at 500 µM (Magnaporthe oryzae [3]) greater than 50%.
In the case of `Cc1cccc(C)c1N(Cn1cccn1)C(=O)CCl` [Metazachlor], the inhibition at 100 µM (Magnaporthe oryzae [1]) was greater than 50%, the inhibition at 500 µM (Magnaporthe oryzae [1]) was greater than 50% and the inhibition at 500 µM (Bipolaris maydis) was greater than 50%. The inhibition at 500 µM (Magnaporthe oryzae [2]) was greater than 50% and the inhibition at 500 µM (Magnaporthe oryzae [3]) was greater than 50%.
Compound `CCN(CC)C(=O)n1cnc(S(=O)(=O)c2c(C)cc(C)cc2C)n1` [Cafenstrole] has an inhibition at 100 µM (Magnaporthe oryzae [1]) greater than 50%, an inhibition at 500 µM (Magnaporthe oryzae [1]) greater than 50% and an inhibition at 500 µM (Bipolaris maydis) greater than 50%. It also gave an inhibition at 500 µM (Magnaporthe oryzae [2]) greater than 50% and an inhibition at 500 µM (Magnaporthe oryzae [3]) greater than 50%.
For `CC(C)N(C(=O)COc1nnc(C(F)(F)F)s1)c1ccc(F)cc1` [Flufenacet], the “inhibition of formation of disease spots on corn leaves (in words)” value (Bipolaris maydis; in vivo) was “not obvious”.
In the case of `CC(C)N(C(=O)CCl)c1ccccc1` [Propachlor], the “inhibition of the number of necrotic spots of Magnaporthe oryzae (in words)” value (Magnaporthe oryzae [1]; drug concentration 100 μM, 30 seedlings sprayed with 5 mL, rice) was “insignificant inhibitory effect on rice blast”, the “inhibition of occurrence of Blumeria graminis disease spots (in words)” value (Blumeria graminis) was “all drugs except Propachlor could inhibit the occurrence of Blumeria graminis disease spots” and the inhibition at 500 µM (Bipolaris maydis) was greater than 50%.
For `CCCCOCN(C(=O)CCl)c1c(CC)cccc1CC` [Butachlor], the inhibition at 500 µM (Magnaporthe oryzae [1]) was greater than 50% and the inhibition at 500 µM (Bipolaris maydis) was greater than 50%.

Reference: US20220095622A1, “Application of Compounds Inhibiting Synthesis of Very Long Chain Fatty Acids in Preventing and Treating Microbial Pathogens and Method Thereof” (Sichuan Agricultural University, priority 2019, published 2022)
